The values that follow come from patent publication US20090076120A1, “Crystal of Aminopyrrolidine Derivative and Production Method Thereof” (TEIJIN PHARMA LIMITED, priority 2005, published 2009).

Data set [1] can be described thus: Storage stability comparison in a thermostatic chamber (HPLC purity, XRD crystal form). The class given is physicochemical. Conditions: for Purity: HPLC. An excerpt:
Crystal A, crystal B and amorphous form of (R)-3-[2-(2-amino-5-trifluoromethoxybenzamido)acetamido]-1(6-methylindol-3-ylmethyl)pyrrolidine in the amount of 1.50 g, 1.50 g and 0.30 g, respectively were each placed in a transparent glass vial. They were simply covered by filter paper and kept in a thermostatic chamber. Samples were serially extracted for HPLC analysis and the appearance was also observed. Transition of crystal form was monitored by XRD analysis at the point of 163 hrs (only for crystals A and B) and 15 days (for all the samples) from the start. The “time” means storage time. The “temperature” is the preset temperature of the thermostatic chamber used for the storage, which was jumped up at 163 hrs from the start.

A short description of data set [2]: Transition of crystal B into crystal A in ethanol/water suspension (HPLC, XRD). The class given is physicochemical. As to conditions: crystal A versus crystal B. Here is the method: Five grams of (R)-3-[2-(2-amino-5-trifluoromethoxybenzamido)acetamido]-1-(6-methylindol-3-ylmethyl)pyrrolidine was suspended in 232 mL of ethanol/water (1.22/1), and the suspension was stirred for 3 hours in an oil bath at 20° C. The precipitated crystals were filtered off and dried at 50° C. under reduced pressure. Yield Amount: 4.25 g (yield: 85%)
HPLC pattern and XRD diagram were measured to confirm that the resulting crystal was crystal A of (R)-3-[2-(2-amino-5-trifluoromethoxybenzamido)acetamido]-1-(6-methylindol-3-ylmethyl)pyrrolidine.

Setting [3] is: storage 192 hrs, 60 °C from 163 hrs.
The mark [4] stands for this setting: storage 240 hrs, 60 °C from 163 hrs.
Where [5] appears, read: storage 15 days, 60 °C from 163 hrs.
Where [6] appears, read: storage time: initial value, 40 °C, glass vial covered by filter paper.
Setting [7] is: storage 163 hrs at 40 °C (temperature then raised 40 to 60 °C).

Structures are written as SMILES. “Also recorded” adds a separate entry of the source.

On to `Cc1ccc2c(CN3CC[C@@H](NC(=O)CNC(=O)c4cc(OC(F)(F)F)ccc4N)C3)c[nH]c2c1` [amorphous form, (R)-3-[2-(2-amino-5-trifluoromethoxybenzamido)acetamido]-1-(6-methylindol-3-ylmethyl)pyrrolidine], for which the “Storage stability (degradation), in words” value in data set [1] (conclusion from Table 5) was “degradation of amorphous form; also recorded: less storage stability compared to the crystal forms”. Moreover, the Purity was found to be 97.78% in data set [1] (storage 24 hrs, 40 °C); 97.55% in data set [1] (storage 71 hrs, 40 °C); 97.25% in data set [1] (storage 144 hrs, 40 °C); 95.88% in data set [1] (setting [3]); 94.33% in data set [1] (setting [4]); 91.14% in data set [1] (setting [5]). In data set [1] (setting [6]), this molecule displayed a Purity of 98.03%. For the same molecule, the “Crystal form (XRD)” value in data set [1] (setting [5]) is “amorphous”.

Consider `Cc1ccc2c(CN3CC[C@@H](NC(=O)CNC(=O)c4cc(OC(F)(F)F)ccc4N)C3)c[nH]c2c1` [Crystal A, (R)-3-[2-(2-amino-5-trifluoromethoxybenzamido)acetamido]-1-(6-methylindol-3-ylmethyl)pyrrolidine], for which the Purity is listed as 98.89% in data set [1] (storage 24 hrs, 40 °C); 98.88% in data set [1] (storage 71 hrs, 40 °C); 98.80% in data set [1] (storage 144 hrs, 40 °C); 98.82% in data set [1] (setting [3]); 98.82% in data set [1] (setting [4]); 98.75% in data set [1] (setting [5]). Besides, the Purity in data set [1] (setting [6]) is recorded as 98.79%. Moreover, the “Crystal form (XRD)” value in data set [1] (setting [7]) and in data set [1] (setting [5]) was “Crystal A” throughout. In addition, the “Relative stability of the two crystal forms” value in data set [2] is reported as “higher than that of crystal B”.

Regarding `Cc1ccc2c(CN3CC[C@@H](NC(=O)CNC(=O)c4cc(OC(F)(F)F)ccc4N)C3)c[nH]c2c1` [Crystal B, (R)-3-[2-(2-amino-5-trifluoromethoxybenzamido)acetamido]-1-(6-methylindol-3-ylmethyl)pyrrolidine], the Purity is reported as 99.22% in data set [1] (storage 24 hrs, 40 °C); 99.31% in data set [1] (storage 71 hrs, 40 °C); 99.22% in data set [1] (storage 144 hrs, 40 °C); 99.28% in data set [1] (setting [3]); 99.19% in data set [1] (setting [4]); 99.28% in data set [1] (setting [5]). This molecule also had a Purity in data set [1] (setting [6]) of 99.20%. The “Crystal form (XRD)” value in data set [1] (setting [7]) and in data set [1] (setting [5]) was “Crystal B” each time.
